Converted amounts (≈) assume the structure as drawn. Read-outs that look alike come from different tables or passages of the source.
How the values were obtained:
[1] = Solubility measurement of saturated solution in phosphate buffer (HPLC); assay type: physicochemical
Experimental: In order to determine the solubility, a saturated solution of the salt from Example 2 was prepared in phosphate buffer at pH 7.0 and shaken at room temperature for 2 hours. The suspensions obtained were filtered by means of a syringe filter (0.45 μm pore diameter) and after being diluted the clear solutions were measured by HPLC. Pure phosphate buffer was used as the blank sample. The solubility was calculated in terms of the absorption of a reference solution of the amorphous zwitterion in phosphate buffer.

[2] = tested on: HCMV AD169 RV-HG; experiment: HCMV fluorescence-reduction test (GFP-RA) in NHDF cells; assay type: cell-based, human cytomegalovirus; conditions: read-out: EC50 (GFP-RA)
Experimental: The in vitro effects of the compositions according to the present invention on the replication of the HCMV (human cytomegalovirus) can be seen in the following antiviral assay:
HCMV Fluorescence-Reduction Test.
The test compositions are used as a 50-millimolar (mM) solution in dimethyl sulphoxide (DMSO). Ganciclovir®, Foscarnet® or Cidofovir® can be used as reference compositions. One day before the beginning of the test, 1.5×10^4 human foreskin fibroblasts (NHDF cells)/well are seeded in 200 μl of cell culture medium in Wells B2-G11 of 96-well plates (black with transparent floor). The wells along the edges of each 96-well plate are filled with 200 μl of medium only in order to prevent edge effects. On the day of the test the cell culture medium in Wells B2-G11 of each 96-well plate is vacuumed off by a suction device and replaced with 100 μl of virus suspension (multiplicity of infection (MOI): 0.1-0.2). The virus used is a recombinant HCMV which has integrated an expression cassette for green fluorescence protein (GFP) in the virus genome (HCMV AD 169 RV-HG [E. M. Borst, K. Wagner, A. Binz, B. Sodeik, and M. Messerle, 2008, J. Virol. 82:2065-2078.]). After an incubation time of 2 h at 37° C. and 5% CO2, the virus inoculate is vacuumed off by a suction device and all wells, with the exception of the wells in Column 3, are filled with 200 μl of cell culture medium. Column 2 is not treated further and serves as a virus control. The wells in Column 3 are each filled with 300 μl of test substance (diluted in cell culture medium) for duplicate analysis. The concentration of the respective antiviral substance in Column 3 is ˜27 times as concentrated as the respective anticipated EC50 value. […] The GFP intensity of each well in a 96-well plate is then determined using a fluorescence scanner (FluoBox; Bayer Technology Services GmbH; filter settings: GFP, […], Em 520 nm). The measured values thus obtained can be used to determine the EC50 of an anti-HCMV: […]

[3] = Human betaherpesvirus 5, AD169, NHDF, 168 h

SMILES	Solubility in buffer ([1]; pH 7) [µg/mL]	EC50 ([2]; virus strain AD169 RV-HG, human foreskin fibroblasts (NHDF cells), 7 days incubation, 50% reduction of GFP fluorescence) [nM]	solubility at 2 h ([1]; aqueous buffer, thermodynamic from solid, phosphate buffer pH 7.0, room temperature, shaken 2 hours, filtered 0.45 μm, HPLC) [µg/mL]	EC50 [2, 3] [nM]
COc1cccc(N2CCN(C3=Nc4c(F)cccc4[C@H](CC(=O)[O-])N3c3cc(C(F)(F)F)ccc3OC)CC2)c1.O.O.O.[Na+] [Example 2, 3-hydrate of the monosodium salt of (S)-{8-fluoro-2-[4-(3-methoxyphenyl)piperazine-1-yl]-3-[2-methoxy-5-(trifluoromethyl)phenyl]-3,4-dihydroquinazoline-4-yl}acetic acid]	>91700	3.9	–	–
COc1cccc(N2CCN(C3=Nc4c(F)cccc4[C@H](CC(=O)O)N3c3cc(C(F)(F)F)ccc3OC)CC2)c1 [Example 6A, (S)-{8-fluoro-2-[4-(3-methoxyphenyl)piperazine-1-yl]-3-(2-methoxy-5-trifluoromethyl-phenyl)-3,4-dihydroquinazoline-4-yl}acetic acid]	–	–	400 (≈ 699 µM)	3.4
Nc1nc(O)c2ncn(COC(CO)CO)c2n1 [Ganciclovir, reference compound]	–	–	–	2200

— patent US9637459B2, “Sodium and calcium salts of dihydroquinazoline derivative and use thereof as antiviral agents” (AiCuris GmbH & Co. KG, priority 2012, dated 2017)
